The nature of data set [1]: DVS hygroscopicity test (dynamic moisture sorption). It counts as physicochemical. The note with it: at 80% RH; listed as hydrochloride crystal form e. Here is the method: DVS stands for dynamic moisture sorption: using the Surface Measurement Systems instrument, humidity started at 50% and the humidity range investigated was 0%-95% with a step of 10%. The judgment standard is that the mass change of each gradient dM/dT is ≤ 0.002%, TMAX is 360 min, and there are two cycles.

Data set [2] in a line: Long-term accelerated stability test (Test Example 3), sealed in aluminum foil bags. Type of data set: physicochemical.

Consider one compound from patent EP4711355A1, “CRYSTAL FORM OF LIPOPROTEIN COMPOUND AND PREPARATION METHOD THEREFOR” (Jiangsu Hengrui Pharmaceuticals Co., Ltd., priority 2023, dated 2024).

Structures can show the parent of a compound that is named as a salt.

With `O=C(O)[C@@H](Cc1cccc(CN(CCOc2cccc(C[C@H](C(=O)O)[C@H]3CCNC3)c2)Cc2cccc(C[C@H](C(=O)O)[C@H]3CCNC3)c2)c1)[C@H]1CCNC1` [hydrochloride (1:1) crystal form e, (2S)-3-(3-{[(2-{3-[(2S)-2-carboxyl-2-[(3R)-pyrrolidin-3-yl]ethyl]phenoxy}ethyl)({3-[(2S)-2-carboxyl-2-[(3R)-pyrrolidin-3-yl]ethyl]phenyl}methyl)amino]methyl}phenyl)-2-[(3R)-pyrrolidin-3-yl]propionic acid], the “DVS hygroscopicity weight gain” value in data set [1] was determined as 18%. Further, the Crystal form result in data set [2] (0 day) is “Hydrochloride crystal form e”; in data set [2] (25°C-60%RH, 1 month) it was “Unchanged”; in data set [2] (25°C-60%RH, 3 months) it was “Unchanged”; in data set [2] (25°C-60%RH, 6 months) it was “Unchanged”; in data set [2] (25°C-60%RH, 7 days), “Unchanged”; in data set [2] (25°C-60%RH, 14 days), “Unchanged”. The Crystal form result is “Unchanged” in data set [2] (40°C-75%RH, 1 month); “Unchanged” in data set [2] (40°C-75%RH, 3 months); “Unchanged” in data set [2] (40°C-75%RH, 6 months); “Unchanged” in data set [2] (40°C-75%RH, 7 days); “Unchanged” in data set [2] (40°C-75%RH, 14 days). The “Purity (%)” value in data set [2] (0 day) was 99.9%; in data set [2] (25°C-60%RH, 1 month), 99.9%; in data set [2] (25°C-60%RH, 3 months) it was 99.9%; in data set [2] (25°C-60%RH, 6 months), 99.9%; in data set [2] (25°C-60%RH, 7 days), 99.9%; in data set [2] (25°C-60%RH, 14 days), 99.9%. Besides, the “Purity (%)” value worked out at 99.9% in data set [2] (40°C-75%RH, 1 month); 99.9% in data set [2] (40°C-75%RH, 3 months); 99.9% in data set [2] (40°C-75%RH, 6 months); 99.9% in data set [2] (40°C-75%RH, 7 days); 99.9% in data set [2] (40°C-75%RH, 14 days). For the same compound, the physicochemical stability entry in data set [2] (25°C/60%RH and 40°C/75%RH for 6 months) is reported as “good”.
